Results taken from patent US8148392B2, “2-indolyl imidazo [4,5-d] phenanthroline derivatives and their use in the treatment of cancer” (Lorus Therapeutics Inc., priority 2005, dated 2012).
Like-named read-outs stand apart in the source and are kept apart here.

Assays:
[1] = test system: MDA-MB-231 breast cancer cells; experiment: XTT cell proliferation assay, MDA-MB-231; format: cell-based, human; conditions: read-out: IC50 (cell growth inhibition)
Method: (§1) Cell growth inhibition IC50 (μM) by compounds of Formula I was tested on various cancer cell types by XTT cell proliferation assay. The growth inhibitory effects of the compounds of Formula I as shown below for the melanoma cell line SK-MEL-2 were reproducible by Lorus Therapeutics Inc.

KLF4 [2] = experiment: KLF4 gene expression by RT-PCR, HCT-116; format: cell-based, human; conditions: HCT-116, relative to vehicle control as 1
Excerpt: (§2) Gene expression levels of KLF4, induced by compounds of Formula I, were also examined on various cancer cell types by RT-PCR. Fold changes in KLF4 in compound-treated cells were expressed relative to KLF4 expression in vehicle control-treated cells of respective cell type as “1”. […] Additionally, xenografts of MDA-MB-435 implanted into mammary fat pads of female SCID mice have shown immunohistochemical staining consistent with melanocytic origin (Ellison G, Klinowska T, Westwood R F, Docter E, French T, Fox J C. (2002) Mol Pathol. 55(5): 294-299). The breast cancer cell line MDA-MB-435 may be expected to function differently than the other breast cancer cell lines.

KLF4 [3] = experiment: KLF4 gene expression by RT-PCR, MOLT-4; format: cell-based, human; conditions: MOLT-4, relative to vehicle control as 1
Excerpt: as §2

KLF4 [4] = experiment: KLF4 gene expression by RT-PCR, SK-MEL-2; format: cell-based, human; conditions: SK-MEL-2, relative to vehicle control as 1
Excerpt: as §2

[5] = test system: PC-3 prostate cancer cells; experiment: XTT cell proliferation assay, PC-3; format: cell-based, human; conditions: read-out: IC50 (cell growth inhibition)
Method: as §1

[6] = test system: MDA-MB-435 breast cancer cells; experiment: XTT cell proliferation assay, MDA-MB-435; format: cell-based, human; conditions: read-out: IC50 (cell growth inhibition)
Method: as §1

[7] = test system: HCT-116 colon cancer cells; experiment: XTT cell proliferation assay, HCT-116; format: cell-based, human; conditions: read-out: IC50 (cell growth inhibition)
Method: as §1

[8] = test system: DU-145 prostate cancer cells; experiment: XTT cell proliferation assay, DU-145; format: cell-based, human; conditions: read-out: IC50 (cell growth inhibition)
Method: as §1

CCRF-CEM leukemia cells = experiment: XTT cell proliferation assay, CCRF-CEM; format: cell-based, human; conditions: read-out: IC50 (cell growth inhibition)
Method: as §1

KLF4 [9] = experiment: KLF4 gene expression by RT-PCR, HT-29; format: cell-based, human; conditions: HT-29, relative to vehicle control as 1
Method: To determine whether compounds of Formula I can chelate zinc in cells, the effect of compound 3 on the expression level of a zinc-regulated gene, metallothionein 1A (MT1A), in human colon carcinoma HT-29 cells, was determined. HT-29 cells, 1×10^6 cells in 10 mL volume of the growth medium were seeded in 100 mm dishes and incubated overnight at 37° C. The medium was removed and replaced with the growth medium containing 35 μM ZnCl2, 1 μM or 4 μM TPEN (NNNN-tetrakis(2-pyridyl-methyl)ethylenediamine), or 1 μM or 4 μM compound 3, or 0.1% DMSO vehicle control. After incubation for 16 hours, the cells were detached by trypsinization, collected by centrifugation and washed once with PBS. Total RNA was extracted by using TRIZOL (Invitrogen, Life Technologies, Carlsbad, Calif.), following manufacturer's instruction, and the level of MT1A mRNA was measured by real time PCR using the comparative CT method as follows. First strand cDNA was synthesized from 200 ng total RNA in Biometra Tpersonal Thermal Cycler (Abgene, UK), using pd(N)6 random hexamer (Amersham Biosciences, Piscataway, N.J.) and SuperScript™ II Reverse Transcriptase kit (Invitrogen) by following manufacturer's protocol. Real-time PCR was performed in ABI Prism 7000 Sequence Detection System (Applied Biosystems Inc., ABI, Foster City, Calif.), using 5 μL of cDNA synthesized by above-mentioned procedure and respective TaqMan® Gene Expression Assays (ABI) by following ABI TaqMan® Universal PCR master mix protocol.
The ability of compounds of Formula I to modulate the mRNA level of a transition metal-regulated tumour suppressor gene was determined in vitro as follows. Compound 3 was tested to determine its ability to increase the expression of zinc-regulated tumour suppressor KLF4 mRNA in colon carcinoma HT-29 cells. […] HT-29 cells were incubated for 16 hours with DMSO as a vehicle control, 35 μM ZnCl2, 1 μM or 4 μM of compound 3, or 1 μM or 4 μM TPEN for 16 hours and mRNA was extracted from the cells as described in Example 19. The expression of KLF4 mRNA was analyzed by real-time polymerase chain reaction using the comparative CT method also as described in Example 19. Compound 3 induced the expression of KLF4 mRNA (approximately 8-fold) in HT-29 cells compared with HT-29 cells treated with vehicle alone (See FIG. 8).
as §2
The change in gene expression of KLF4 upon zinc depletion following compound 3 treatment was determined by RT-PCR as follows. HT-29 cells were treated with 1 μM compound 3 for the indicated time (FIG. 39A) or HT-29 cells were treated with 1 μM compound 3, 35 μM ZnCl2 or compund 3 and ZnCl2 together for 16 hr (FIG. 39B). Total RNA was extracted and gene expression level was determined by RT-PCR.
Fold change in KLF4 gene expression was presented relative to KLF4 expression in non-specific siRNA-transfected cells treated with vehicle control.

KLF4 [10] = experiment: KLF4 gene expression by RT-PCR, DU-145; format: cell-based, human; conditions: DU-145, relative to vehicle control as 1
Excerpt: as §2

KLF4 [11] = experiment: KLF4 gene expression by RT-PCR, PC-3; format: cell-based, human; conditions: PC-3, relative to vehicle control as 1
Excerpt: as §2

KLF4 [12] = experiment: KLF4 gene expression by RT-PCR, CCRF-CEM; format: cell-based, human; conditions: relative to vehicle control as 1
Excerpt: as §2

[13] = test system: human colon carcinoma HT-29 cells; experiment: XTT cell proliferation assay, HT-29; format: cell-based
Method: The ability of compounds of Formula I to inhibit the proliferation of human colon carcinoma HT-29 cells was tested as follows. HT-29 colon carcinoma cells used in this example and subsequent examples were maintained as a monolayer in a growth medium; McCoy's 5A modified medium (Sigma, St. Louis, Mo.), supplemented with 2 mM L-glutamine (Gibco, Grand Island, N.Y.), 10% fetal bovine serum (FBS) (Multicell, WISENT Inc. St-Bruno, QC), antibiotic-antimycotic (Multicell), at 37° C. in a 5% CO2-humidified incubator. Cells were transferred onto 150 mm tissue culture plates and grown until sub-confluency (70-80%) prior to their use. The in vitro antiproliferative activity of compounds was evaluated by incubating the cells with varying concentrations of the compounds as shown in Table 1 for 6-7 days. The efficacy of these compounds in this cell proliferation assay was measured based in the ability of live cells to reduce the tetrazolium salt XTT to orange colored compounds of formazan (XTT cell proliferation kit II, Roche Applied Science, Montreal, QC).
The ability of compounds of Formula I to inhibit the proliferation of human colon carcinoma HT-29 cells was tested as described above in Example 13.
as §1

KLF4 [14] = experiment: KLF4 gene expression by RT-PCR, MDA-MB-435; format: cell-based, human; conditions: MDA-MB-435, relative to vehicle control as 1
Excerpt: as §2

SK-MEL-2 melanoma cells = experiment: XTT cell proliferation assay, SK-MEL-2; format: cell-based, human; conditions: read-out: IC50 (cell growth inhibition)
Method: as §1

MOLT-4 leukemia cells = experiment: XTT cell proliferation assay, MOLT-4; format: cell-based, human; conditions: read-out: IC50 (cell growth inhibition)
Method: as §1

KLF4 [15] = experiment: KLF4 gene expression by RT-PCR, H-460; format: cell-based, human; conditions: H-460, relative to vehicle control as 1
Excerpt: as §2
Expressions of KLF2, 4 and 6 genes in H-460 cells, treated with vehicle control or 2.5 μM compound 3 or compound 7, were measured by RT-PCR. Gene expression was presented relative to respective gene expression in vehicle control-treated group as “1”.

KLF4 [16] = experiment: KLF4 gene expression by RT-PCR, MDA-MB-231; format: cell-based, human; conditions: MDA-MB-231, relative to vehicle control as 1
Excerpt: as §2

H-460 lung cancer cells = experiment: XTT cell proliferation assay, H-460; format: cell-based, human; conditions: read-out: IC50 (cell growth inhibition)
Method: as §1

Question: For `Cc1ccc2[nH]c(C34CC5CC(CC(C5)C3)C4)c(-c3nc4c5cccnc5c5ncccc5c4[nH]3)c2c1` [Compound 69], which IC50 [1] is on record?
Answer: 3300 nM

Question: What about the “KLF4 (gene fold increase)” value (KLF4 [2]) of the same compound?
Answer: 3.11 fold

Question: And the “KLF4 (gene fold increase)” value (KLF4 [3])?
Answer: 276.28 fold

Question: What about the “KLF4 (gene fold increase)” value (KLF4 [4]) of the same compound?
Answer: 4 fold

Question: And the IC50 [5]?
Answer: 340 nM

Question: What about the IC50 [6] of the same compound?
Answer: 600 nM

Question: What about the IC50 [7] of the same compound?
Answer: 160 nM

Question: What about the IC50 [8] of the same compound?
Answer: 400 nM

Question: What about the IC50 (CCRF-CEM leukemia cells) of the same compound?
Answer: 200 nM

Question: And the “KLF4 (gene fold increase)” value (KLF4 [9])?
Answer: 6.54 fold

Question: And the “KLF4 (gene fold increase)” value (KLF4 [10])?
Answer: 7.46 fold

Question: And the “KLF4 (gene fold increase)” value (KLF4 [11])?
Answer: 0.95 fold

Question: What about the “KLF4 (gene fold increase)” value (KLF4 [12]) of the same compound?
Answer: 74.29 fold

Question: What about the IC50 ([13]; HT-29, XTT, as Example 13, Table 7) of the same compound?
Answer: 0.2 µg/mL

Question: What about the IC50 ([13]; HT-29 colon, Table 8, read-out: IC50 (cell growth inhibition)) of the same compound?
Answer: 200 nM

Question: And the “KLF4 (gene fold increase)” value (KLF4 [14])?
Answer: 8.91 fold

Question: What about the IC50 (SK-MEL-2 melanoma cells) of the same compound?
Answer: 180 nM

Question: What about the IC50 (MOLT-4 leukemia cells) of the same compound?
Answer: 200 nM

Question: What about the “KLF4 (gene fold increase)” value (KLF4 [15]) of the same compound?
Answer: 1.95 fold

Question: And the “KLF4 (gene fold increase)” value (KLF4 [16])?
Answer: 1.61 fold

Question: And the IC50 (H-460 lung cancer cells)?
Answer: 400 nM
